Data on one compound can be found in patent publication US3993683A, “Biphenylyl derivatives” (Boehringer Ingelheim GmbH, priority 1974, dated 1976).

The structures appear in SMILES notation. Read-outs that look alike come from different tables or passages of the source. Bounds are passed on as bounds.

The test system of data set [1] is non-anesthetized mice. As to the kind of experiment: Prolonging effect upon the bleeding time (method of Duke). The data set is classed as in vivo. The conditions noted are these: Mus musculus, po, 1 h, 10 mgm/kg per os, 1 hour after administration, vs untreated animals, read-out: Prolongation of bleeding time in % after 1 hour. The source says:
2. The prolonging effect upon the bleeding time was ascertained by the method of Duke, J. Amer. Med. Assoc. 15, 1185 (1910). 10 mgm/kg of the test compound were given per os to non-anesthetized mice. One or three hours after administration of the test compound, about 0.5 mm was cut off from the tail of each animal, and the exuded blood was carefully soaked up with filter paper at intervals of 30 seconds. The number of drops of blood so obtained was used as a measure for the bleeding time compared to untreated animals (5 animals/test).

The test system of data set [2] is white mice. The data set is described as follows: Acute toxicity after oral administration of a single dose. The data set is classed as in vivo. The following applies: observation time 14 days. On the procedure: (§1) The acute toxicity of the test compounds was determined in white mice (observation time: 14 days) after oral administration of a single dose.
Assay in data set [3]: as above
The data set is classed as in vivo. The following applies: mouse, in vivo, po, white mice, observation time 14 days. The procedure: as §1

Data set [4] concerns thrombocyte aggregation in the platelet-rich plasma of healthy human test subjects. As to the kind of experiment: Inhibition of collagen-induced thrombocyte aggregation (method of Born and Cross). The data set is classed as cell-based. The following applies: Homo sapiens, 10 min, 10^-4 mol/liter test compound, 10 minutes incubation at 37° C, vs untreated controls. The source says: 1. The inhibiting action upon thrombocyte aggregation was ascertained by the method of Born and Cross, J. Physiol. 170, 397 (1964), in the platelet-rich plasma of healthy human test subjects, by photometrically ascertaning and registering the rate of decrease of the optical density after addition of commercial collagen containing 1 mgm of collagen fibrils per ml. The angle of inclination of the density curve is a measure of the rate of aggregaton (V max.). The point on the curve which corresponded to the greatest lightpermeability was used for calculation of the optical density (o.D.).
The collagen doses were held to a minimum, but still sufficiently large to result in an irreversible aggregation. Prior to addition of collagen, each plasma sale was incubated for 10 minutes at 37° C with various amounts of the test compound. To provoke maximum aggregation, about 0.01 ml of the collagen solution was added to 1 ml of platelet-rich plasma.
The values in Table I below represent the inhibition of the aggregation rate in % (V max) and the alteration of the optical density (O.D.) in %, compared with the untreated controls, i.e. without addition of the test compound.

Turning to `CC(c1ccc(-c2ccccc2F)cc1)[S+]([O-])CC(=O)N1CCCCC1` (centres unmarked) [I, [1-(2'-fluoro-4-biphenylyl)-ethylsulfinyl]-acetic acid piperidide], the change in vivo at 10 mg/kg in data set [1] turned out to be 122%. Moreover, in data set [2], the “animals died (at the stated dose)” value is 0 out of 5. For the same compound, in data set [3], the 50% lethal dose (LD50) (commonly the dose at which mortality reaches 50%) at 336 h was over 250 mg/kg. Moreover, the inhibition at 100 µM is 85% in data set [4] (read-out: Inhibition in % of the aggregation rate (V max)) and 90% in data set [4] (read-out: Inhibition in %: alteration of the optical density (O.D.)).
